Measurements taken from patent US12428405B2, “Chalcone-based chemotherapeutic compound for triple negative breast cancer” (QATAR UNIVERSITY, priority 2019, dated 2025).
Read-outs that look alike come from different tables or passages of the source.

How the values were obtained:
[1] = system: MDA-MB-231; experiment: Migration (wound healing) assay; format: cell-based; settings: for activity at 5 µM: read-out: % migration; for IC50: 24 hours of treatment, 5 concentrations, two independent experiments, read-out: Migratory IC50 MDA-MB-231
Experimental: MDA-MB-231 cells were seeded in 12-wells plates at a concentration of 500,000 cells/well and were incubated in complete RPMI culture medium until covering the well and reaching around 90-100% confluency. Following, cells were serum starved for 4 hours and a 200 μl pipette tip was used to create the scratch followed by cell washing with PBS twice. […] Microscopic pictures were then taken, and cell migration was quantified based on the wound diameter at 24 hours minus the initial diameter at time zero, as represented by the following equation: % Migration=[…]

[2] = system: MDA-MB-231; experiment: Soft agar colony formation assay; format: cell-based; settings: MDA-MB-231; soft agar
[3] = system: MCF-7; experiment: Soft agar colony formation assay; format: cell-based; settings: MCF-7; soft agar
[4] = system: MDA-MB-468; experiment: Soft agar colony formation assay; format: cell-based; settings: MDA-MB-468; soft agar
[5] = system: Epithelial Mesenchymal Transition (EMT) markers in MDA-MB-231 cells; experiment: Western blot of EMT markers; format: cell-based; settings: cell line not named in the sentence (FIG. 3.24, FIG. 3.25)
Experimental: Proteins were quantified with the Pierce BCA Protein Assay Kit (Thermo Scientific, USA) following cell lysis. SDS-PAGE was prepared at a concentration of 10% for all studied proteins. All samples were loaded at 40 μg per 1.5 mm 15 wells comb. Running of stained samples was performed using two steps gel electrophoresis (60 Volts for 20 minutes followed by 120 Volts for 1 hour). Afterwards, gels were transferred into PVDF membrane at 100 Voltage for 1.5-2.0 hours using wet transfer. Following transfer, PVDF membranes were blocked with 5% skimmed milk and washed three times. Primary antibodies (Table 2.2) were prepared, then PVDF membrane were incubated with them overnight with gentle shaking at 4° C. Afterwards, membranes were washed three times and incubated with their respective secondary antibodies for 1-2 hours with gentle shaking at room temperature. Pierce™ ECL Western Blotting Substrate was used to detect proteins by chemiluminescence. Blots were imaged using the ibrightCL1000 imaging system.

[6] = system: MDA-MB-231; experiment: Cell cycle analysis (flow cytometry); format: cell-based; settings: 10 μM, 48 hours post treatment; N=1
Experimental: The MDA-MB-231, MDA-MB-468 and MCF-7 cell lines were seeded on 6-well plates at a concentration of 200,000 cells per well and were maintained in culture supplemented with 10% fetal bovine serum for 8-10 hours. The same day, media was removed and cells were incubated overnight with serum free media. Second day, cells were treated with the compounds. Adherent and floating cell populations were harvested at 48 hours after treatment with different concentrations of the compounds and counted.
Afterward, cells were washed with cold PBS once, centrifuged at 4° C. and fixed with 1.5 ml cold 70% ethanol added drop wise while slowly vortexing. Samples were then stored at […] Following fixation, cells were pelleted and washed with ice-cold PBS. Equal aliquots were collected and resuspended in 300 μl of Tali® Cell Cycle Kit and incubated at 37 C. with slow shaking speed for 30 minutes in the dark. Accuri C6 flow cytometer (BD Biosciences, USA) was used to analyze the cells. The FlowJo V10 software was used to process and evaluate the results.

[7] = system: Chorioallantoic membrane (CAM) of the chicken embryos; experiment: Chorioallantoic membrane (CAM) angiogenesis assay; format: in vivo; settings: treated at embryonic day 4, read at day 8; 2 μl of 5 mM stock under coverslip
Experimental: Fertilized white Leghorn chicken embryos (Arab Qatari for Poultry Production, Qatar) were purchased and incubated at 60% humidity at 37° C. in MultiQuip incubator. Ethics approval was obtained from Qatar University-Institutional Bio-safety committee. The embryos were treated in ovo at embryonic day 4 with three of the synthesized chalcones (5, 13 and 14) compared to DMSO treated controls. Briefly, a small cut was made at the top of the shells of the eggs and each treatment was added under a round coverslip at 2 μl of 5 mM stock solutions. Microscopic pictures were taken at embryonic day 8. Embryos treated with compounds 13 and 14 were sacrificed at embryonic day 9 for clinical observations. Quantification of blood vessels was performed manually and the different treatment groups were compared.

[8] = Homo sapiens, MDA-MB-231, 5 μM, 24 hours post treatment, control = 100, Mean ± SEM (N = 2 × 2)

With `CS(=O)(=O)c1ccc(C(=O)/C=C/c2ccc(N3CCOCC3)cc2)cc1` [Compound 3, (E)-1-(4-(methylsulfonyl)phenyl)-3-(4-morpholinophenyl) prop-2-en-1-one] the activity at 5 µM [1, 8] was 65.7 ± 52.4%.
In the case of `COc1cc2c(c(OC)c1OC)-c1ccc(OC)c(=O)cc1[C@@H](NC(C)=O)CC2` [Colchicine, reference compound], the “colony formation (in words)” value [2] is reported as “significantly inhibited the ability of cells to form colonies”, the activity at 5 µM ([1]; Homo sapiens, MDA-MB-231, 24 h) is reported as 47.45 ± 0.25% and the “colony formation (in words)” value [3] is reported as “significantly inhibited the ability of cells to form colonies”. The “colony formation (in words)” value [4] was “significantly inhibited the ability of cells to form colonies” and the “expression of β-catenin and its phosphorylated form” value [5] was “upregulated phospho-3-catenin”.
`CS(=O)(=O)c1ccc(C(=O)/C=C/c2ccc(N3CCCC3)cc2)cc1` [Compound 2, (E)-1-(4-(methylsulfonyl)phenyl)-3-(4-(pyrrolidin-1-yl)phenyl) prop-2-en-1-one] was tested, and the activity at 5 µM [1, 8] was 67.3 ± 53.9% and the “cell cycle shifts (in words)” value [6] was “slight S phase arrest”.
Work on `CSc1ccc(C(=O)/C=C/c2ccc(N3CCCC3)cc2)cc1` [Compound 7, (E)-1-(4-(methylthio)phenyl)-3-(4-(pyrrolidin-1-yl)phenyl) prop-2-en-1-one] yielded an activity at 5 µM [1, 8] of 71.8 ± 0.06%.
`O=C(/C=C/c1ccc(N2CCCC2)cc1)c1ccc2c(c1)OCO2` [Compound 10, (E)-1-(benzo[d][1,3]dioxol-5-yl)-3-(4-(pyrrolidin-1-yl)phenyl)prop-2-en-1-one] was tested, and the activity at 5 µM [1, 8] was 53.5 ± 5.98% and the IC50 ([1]; Homo sapiens, MDA-MB-231) was 4800 ± 720 nM.
In the case of `CS(=O)(=O)c1ccc(C(=O)/C=C/c2ccc(N3CCCCC3)cc2)cc1` [Compound 4, (E)-1-(4-(methylsulfonyl)phenyl)-3-(4-(piperidin-1-yl)phenyl) prop-2-en-1-one], the activity at 5 µM [1, 8] is reported as 70.7 ± 55.9%.
For `COc1ccccc1C(=O)/C=C/c1ccc(N(CCCl)CCCl)cc1` [Compound 12, (E)-3-(4-(Bis(2-chloroethyl)amino)phenyl)-1-(2-methoxyphenyl) prop-2-en-1-one], the IC50 [1] was 1990 ± 190 nM, the IC50 ([1]; Homo sapiens, MDA-MB-231, 24 h) was 2000 ± 188 nM and the activity at 5 µM [1, 8] was 32.8 ± 0.68%.
For `COc1cccc(C(=O)/C=C/c2ccc(N3CCCCC3)cc2)c1` [Compound 9, (E)-1-(3-methoxyphenyl)-3-(4-(piperidin-1-yl)phenyl)prop-2-en-1-one], the activity at 5 µM [1, 8] was 75 ± 0.86% and the “cell cycle shifts (in words)” value [6] was “no major cell cycle shifts”.
With `CSc1ccc(C(=O)/C=C/c2ccc(N3CCCCC3)cc2)cc1` [Compound 6, (E)-1-(4-(methylthio)phenyl)-3-(4-(piperidin-1-yl)phenyl) prop-2-en-1-one] the activity at 5 µM [1, 8] was 69.5 ± 3.92%.
In the case of `CC(=O)O[C@H]1C(=O)[C@@]2(C)[C@H]([C@H](OC(=O)c3ccccc3)[C@]3(O)C[C@H](OC(=O)[C@H](O)[C@@H](NC(=O)c4ccccc4)c4ccccc4)C(C)=C1C3(C)C)[C@]1(OC(C)=O)CO[C@@H]1C[C@@H]2O` [Paclitaxel, reference compound], the “colony formation (in words)” value [2] is reported as “significantly inhibited the ability of cells to form colonies”, the activity at 5 µM [1, 8] is reported as 39.3 ± 5.16% and the IC50 ([1]; Homo sapiens, MDA-MB-231) is reported as 2010 ± 220 nM. For the same molecule, the “colony formation (in words)” value [3] was “significantly inhibited the ability of cells to form colonies” and the “colony formation (in words)” value [4] was “significantly inhibited the ability of cells to form colonies”.
For `CSc1ccc(C(=O)/C=C/c2ccc(N3CCOCC3)cc2)cc1` [Compound 5, (E)-1-(4-(methylthio)phenyl)-3-(4-morpholinophenyl) prop-2-en-1-one], the activity at 5 µM [1, 8] was 64.3 ± 3.32%, the IC50 ([1]; Homo sapiens, MDA-MB-231) was 6140 ± 620 nM and the “inhibition of blood vessels development vs control” value [7] was 68.49±4.42%. The “cell cycle shifts (in words)” value [6] was “no major cell cycle shifts”.
`O=C(/C=C/c1ccc(N2CCCC2)cc1)c1cccc(Cl)c1` [Compound 1, (E)-1-(3-chlorophenyl)-3-(4-(pyrrolidin-1-yl)phenyl) prop-2-en-1-one] was tested, and the activity at 5 µM [1, 8] was 74.7 ± 5.8%.
`COc1cccc(C(=O)/C=C/c2ccc(N3CCCC3)cc2)c1` [Compound 8, (E)-1-(3-methoxyphenyl)-3-(4-(pyrrolidin-1-yl)phenyl) prop-2-en-1-one] showed an activity at 5 µM [1, 8] of 48.7 ± 2.85% and an IC50 ([1]; Homo sapiens, MDA-MB-231) of 3000 ± 460 nM.
Molecule `O=C(/C=C/c1ccc(N2CCOCC2)cc1)c1ccc(N2CCNCC2)cc1` [Compound 11, (E)-3-(4-morpholinophenyl)-1-(4-(piperazin-1-yl)phenyl) prop-2-en-1-one] has an activity at 5 µM [1, 8] of 75.1 ± 0.86%.
